Results published in US20240197888A1, “SOS1 PROTEIN DEGRADERS, PHARMACEUTICAL COMPOSITIONS THEREOF, AND THEIR THERAPEUTIC APPLICATIONS” (BioTheryX, Inc., priority 2021, published 2024).

What was measured:
Assay type in all cases: cell-based
[1] = system: SW48 (wt) cells; test: Cell viability assay (CELLTITER-GLO), SW48 cells; details: Homo sapiens, 72 h, Inhibition of cancerous cells, 3 days incubation, luminescence
Protocol: (§1) AsPC-1, H358, and SW48 cells were cultured in RPMI 1640 media supplemented with 10% fetal bovine serum, streptomycin, and penicillin. Lovo and SW480 cells were cultured in DMEM media supplemented with 10% fetal bovine serum, streptomycin, and penicillin. The cell lines were plated in their respective medium supplemented with 2.5% fetal bovine serum, streptomycin, and penicillin. All cell lines were plated in white walled 96-well plates at 2,000 cells/well or 384-well plates at 500 cells/well, except Lovo, which were plated at 4,000 or 1,000 cells/well, respectively. The cells were incubated in DMSO (control) or a compound for 3 days at 37° C. under 5% CO2. A CELLTITER-GLO® reagent ([…] was then added to each well. After a 10 min incubation with shaking, luminescence was measured using an ENVISION® multimode plate reader. IC50 values are summarized in Table 1.

[2] = system: H358 (G12C) cells; test: Cell viability assay (CELLTITER-GLO), H358 cells; details: Homo sapiens, NCI-H358, 72 h, Inhibition of cancerous cells, 3 days incubation, luminescence
Protocol: as §1

[3] = system: SW480 (G12V) cells; test: Cell viability assay (CELLTITER-GLO), SW480 cells; details: Homo sapiens, 72 h, Inhibition of cancerous cells, 3 days incubation, luminescence
Protocol: as §1

[4] = system: Lovo (G13D) cells; test: Cell viability assay (CELLTITER-GLO), Lovo cells; details: Homo sapiens, 72 h, Inhibition of cancerous cells, 3 days incubation, luminescence
Protocol: as §1

SMILES	IC50 [1]	IC50 [2]	IC50 [3]	IC50 [4]
CNCc1ccccc1-c1csc([C@@H](C)Nc2nc(C)nc3cc(OCCCCCCCN4CCCCC4)c(OC)cc23)c1 [Compound A2, (R)-6-methoxy-2-methyl-N-(1-(4-(2-((methylamino)methyl)phenyl)thiophen-2-yl)ethyl)-7-((7-(piperidin-1-yl)heptyl)oxy)quinazolin-4-amine]	0.33 µM	0.47 µM	0.51 µM	0.18 µM
CNCc1ccccc1-c1csc([C@H](C)Nc2nc(C)nc3cc(OCCOCCNC(=O)CC45CC6CC(CC(C6)C4)C5)c(OC)cc23)c1 [Compound A6, 2-((3r,5r,7r)-adamantan-1-yl)-N-(2-(2-((6-methoxy-2-methyl-4-(((S)-1-(4-(2-((methylamino)methyl)phenyl)thiophen-2-yl)ethyl)amino)quinazolin-7-yl)oxy)ethoxy)-ethyl)acetamide]	1 µM	0.97 µM	0.76 µM	0.48 µM
COc1cc2c(N[C@H](C)c3cccc(Br)c3)nc(C)nc2cc1OCCCCCCCN1CCCCC1=O [Compound A25, (R)-1-(7-((4-((1-(3-Bromophenyl)ethyl)amino)-6-methoxy-2-methylquinazolin-7-yl)oxy)heptyl)piperidin-2-one]	1.8 µM	1.4 µM	0.78 µM	0.5 µM
COc1cc2c(N[C@H](C)c3cccc(Br)c3)nc(C)nc2cc1OCCCCCCCN1CCN(C(C)=O)CC1 [Compound A26, (R)-1-(4-(7-((4-((1-(3-Bromophenyl)ethyl)amino)-6-methoxy-2-methyl-quinazolin-7-yl)oxy)heptyl)piperazin-1-yl)ethan-1-one]	0.6 µM	1.2 µM	0.58 µM	0.54 µM

Continued by falling IC50 [1], values first:

IC50 [1]	IC50 [2]	IC50 [3]	IC50 [4]	SMILES
3.6 µM	5.4 µM	1.9 µM	2.2 µM	COc1cc2c(N[C@H](C)c3cccc(Br)c3)nc(C)nc2cc1OCCCCCCCc1ccncc1 [Compound A43, (R)—N-(1-(3-Bromophenyl)ethyl)-6-methoxy-2-methyl-7-((7-(pyridin-4-yl)heptyl)-oxy)quinazolin-4-amine]
1.7 µM	1.3 µM	0.56 µM	0.78 µM	COc1cc2c(N[C@H](C)c3cccc(Br)c3)nc(C)nc2cc1OCCCCCCC(=O)N1CCCCC1 [Compound A36, (R)-7-((4-((1-(3-Bromophenyl)ethyl)amino)-6-methoxy-2-methylquinazolin-7-yl)oxy)-1-(piperidin-1-yl)heptan-1-one]
0.9 µM	0.91 µM	0.55 µM	0.45 µM	CNCc1ccccc1-c1csc([C@@H](C)Nc2nc(C)nc3cc(OCCOCCNC(=O)CC45CC6CC(CC(C6)C4)C5)c(OC)cc23)c1 [Compound A5, 2-((3r,5r,7r)-adamantan-1-yl)-N-(2-(2-((6-methoxy-2-methyl-4-(((R)-1-(4-(2-((methylamino)methyl)phenyl)thiophen-2-yl)ethyl)amino)quinazolin-7-yl)oxy)ethoxy)ethyl)-acetamide]
0.59 µM	1.2 µM	0.71 µM	0.46 µM	COc1cc2c(N[C@H](C)c3cccc(Br)c3)nc(C)nc2cc1OCCCCCCCN1CCC(C(F)(F)F)CC1 [Compound A24, (R)—N-(1-(3-Bromophenyl)ethyl)-6-methoxy-2-methyl-7-((7-(4-(trifluoromethyl)-piperidin-1-yl)heptyl)oxy)quinazolin-4-amine]
0.5 µM	0.61 µM	0.61 µM	0.34 µM	CNCc1ccccc1-c1csc([C@H](C)Nc2nc(C)nc3cc(OCCCCCCCN4CCCCC4)c(OC)cc23)c1 [Compound A3, (S)-6-methoxy-2-methyl-N-(1-(4-(2-((methylamino)methyl)phenyl)thiophen-2-yl)ethyl)-7-((7-(piperidin-1-yl)heptyl)oxy)quinazolin-4-amine]
